The values that follow come from PubChem BioAssay (NCI).

Some test systems named below: HCT-116 colon; OVCAR-5 ovarian; SN12C renal; HCC-2998 colon; MDA-MB-435; ACHN renal; OVCAR-8 ovarian; PC-3 prostate; RXF 393 renal; A498 renal; TK-10 renal.
Holding throughout (assay): growth of human tumour cells (NCI), 48 h

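A five-concentration, 48-hour dose response in 96-well plates underlies each endpoint, interpolated linearly between surrounding concentrations. Here, GI50 denotes the concentration required for 50% inhibition of growth. Definition used: TGI = concentration required for complete inhibition of growth.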 Where a SMILES comes first, the peptide text is derived from it. The star is where a group is joined. Boc = CC(C)(C)OC(=O)*; OBn = c1ccc(CO*)cc1 A value given as a limit tells only on which side of the number the result lay.

As for `CCOC(=O)C(NC(=O)CC)(Nc1ccc(S(=O)(=O)Nc2onc(C)c2C)cc1)C(F)(F)F` (centres undefined), the TGI with HCT-116 colon, with OVCAR-5 ovarian, in the experiment with SN12C renal, with HCC-2998 colon, with MDA-MB-435 and with ACHN renal was more than 100 µM each time. Also, the TGI in the experiment on OVCAR-8 ovarian, in the experiment on PC-3 prostate and in the experiment on RXF 393 renal was more than 100 µM throughout.
For `COc1ccccc1N=Nc1c(O)c(S(=O)(=O)O)cc2cc(S(=O)(=O)O)ccc12`, the TGI in the experiment on HCT-116 colon, in the experiment on OVCAR-5 ovarian, with A498 renal, with SN12C renal, with TK-10 renal and in the experiment with MDA-MB-435 was more than 100 µM throughout. Besides, the TGI in the experiment with ACHN renal, in the experiment with OVCAR-8 ovarian, in the experiment on PC-3 prostate and in the experiment on RXF 393 renal was more than 100 µM each time.
For the compound `O=C1CC(C(CC(=O)c2ccccc2)c2ccccc2)C(=O)c2ccccc2N1` (centres undefined), the TGI with HCT-116 colon, in the experiment with OVCAR-5 ovarian, in the experiment with A498 renal, with SN12C renal, in the experiment on HCC-2998 colon and in the experiment on MDA-MB-435 was more than 100 µM each time. Also, the TGI in the experiment on ACHN renal, in the experiment with OVCAR-8 ovarian and in the experiment on PC-3 prostate was more than 100 µM each time.
For `COC(=O)CCc1c(Cc2ccc[nH]2)[nH]c(C(=O)OCc2ccccc2)c1C`, the TGI with HCT-116 colon is 32.9 µM; in the experiment on OVCAR-5 ovarian it was more than 100 µM; with A498 renal, 62.8 µM; in the experiment with SN12C renal, 35.6 µM; in the experiment with TK-10 renal, 76.2 µM; with MDA-MB-435, 32.6 µM. Further, the TGI is 70.6 µM in the experiment with ACHN renal, 52.5 µM in the experiment on OVCAR-8 ovarian, 60 µM in the experiment with PC-3 prostate and 49 µM in the experiment on RXF 393 renal.
On to `CC(C)CC(NC(=O)OC(C)(C)C)C(=O)NC(CC(=O)OCc1ccccc1)C(=O)OCc1ccccc1` (stereo not drawn) (Boc-Leu-Asp(OBn)-OBn; configuration not given here), for which the TGI in the experiment with HCT-116 colon was more than 100 µM; with OVCAR-5 ovarian, more than 100 µM; in the experiment on A498 renal, more than 100 µM; in the experiment on SN12C renal, 50.9 µM; in the experiment on TK-10 renal, 60.9 µM; with HCC-2998 colon, 56.8 µM. For the same compound, the TGI is more than 100 µM in the experiment with MDA-MB-435, more than 100 µM in the experiment on OVCAR-8 ovarian, 84.8 µM in the experiment on PC-3 prostate and 90.5 µM in the experiment with RXF 393 renal.
`C=C1[C@@](C)([C@@H]2CCCS2)[C@H]2C(C)=C[C@]1(C)n1c(=O)n(-c3ccccc3)c(=O)n12`: the TGI in the experiment with HCT-116 colon, in the experiment with OVCAR-5 ovarian, in the experiment on A498 renal, in the experiment on SN12C renal, in the experiment on TK-10 renal and with HCC-2998 colon was more than 100 µM in each case. Further, the TGI with MDA-MB-435, in the experiment with ACHN renal and with PC-3 prostate was more than 100 µM throughout.
`C=C(C)C1CC/C(C)=C/CC[C@]2(C)O[C@@H]2CCC2=CC1OC2=O` (some centres undefined): the GI50 with HCT-116 colon is 27.6 µM; in the experiment with OVCAR-5 ovarian, 0.635 µM; in the experiment on A498 renal, 23.2 µM; in the experiment with SN12C renal, 78.8 µM; in the experiment with TK-10 renal, 15.7 µM; in the experiment on HCC-2998 colon, 80 µM. The figures for the GI50 in the experiment on MDA-MB-435, in the experiment with OVCAR-8 ovarian and with PC-3 prostate were 49.4 µM, more than 100 µM and 48.9 µM, respectively. Besides, the TGI with HCT-116 colon, with OVCAR-5 ovarian, in the experiment on A498 renal, in the experiment with SN12C renal, in the experiment on TK-10 renal and in the experiment on HCC-2998 colon was more than 100 µM each time. The TGI in the experiment with MDA-MB-435, with OVCAR-8 ovarian and with PC-3 prostate was more than 100 µM throughout.
For the compound `CC1(C)CC2(C)CC1CC2(O)c1ccccc1` (centres undefined), the TGI in the experiment on HCT-116 colon, in the experiment with OVCAR-5 ovarian, with A498 renal, with SN12C renal, in the experiment on TK-10 renal and in the experiment with MDA-MB-435 was more than 100 µM each time. Besides, the TGI with ACHN renal, in the experiment on OVCAR-8 ovarian, in the experiment with PC-3 prostate and with RXF 393 renal was more than 100 µM in each case.
For `CN(C(=O)c1ccc2c(c1)sc1c(=O)n(C)c3ccccc3c12)c1ccccc1`, the TGI in the experiment on HCT-116 colon, with OVCAR-5 ovarian, with SN12C renal, in the experiment with TK-10 renal, in the experiment with HCC-2998 colon and in the experiment on MDA-MB-435 was more than 100 µM throughout. Further, the TGI in the experiment with ACHN renal, with OVCAR-8 ovarian, in the experiment with PC-3 prostate and in the experiment with RXF 393 renal was more than 100 µM throughout.
As to `CC12CCCCC1=[N+]([O-])C(C)(C)N2O` (centres undefined), the TGI in the experiment with HCT-116 colon, with OVCAR-5 ovarian, with SN12C renal, with TK-10 renal, in the experiment on HCC-2998 colon and in the experiment on MDA-MB-435 was more than 100 µM throughout. Moreover, the TGI in the experiment on ACHN renal, in the experiment with OVCAR-8 ovarian, in the experiment on PC-3 prostate and in the experiment with RXF 393 renal was more than 100 µM throughout.
As to `Cc1ccnc2nc(N)ccc12`, the TGI with HCT-116 colon, in the experiment with OVCAR-5 ovarian, with A498 renal, in the experiment on SN12C renal, in the experiment on TK-10 renal and in the experiment with MDA-MB-435 was more than 100 µM each time. For the same compound, the TGI with ACHN renal, in the experiment on OVCAR-8 ovarian, in the experiment with PC-3 prostate and with RXF 393 renal was more than 100 µM in each case.
Regarding `CCCC1C(=O)Nc2cccc3ncn(c23)C1=O` (centres undefined), the TGI in the experiment on HCT-116 colon, with OVCAR-5 ovarian, in the experiment with A498 renal, in the experiment with SN12C renal, in the experiment on MDA-MB-435 and in the experiment on ACHN renal was more than 100 µM throughout. In addition, the TGI in the experiment on OVCAR-8 ovarian, in the experiment with PC-3 prostate and in the experiment with RXF 393 renal was more than 100 µM each time.
Turning to `Cc1nnc2n(c1=O)CCN2C`, the TGI in the experiment on HCT-116 colon, in the experiment with OVCAR-5 ovarian, with SN12C renal, in the experiment with TK-10 renal, in the experiment on HCC-2998 colon and in the experiment with MDA-MB-435 was more than 100 µM each time. The TGI in the experiment with ACHN renal, with OVCAR-8 ovarian, with PC-3 prostate and in the experiment on RXF 393 renal was more than 100 µM in each case.
